According to patent US20250243160A1, “INDOLE DERIVATIVES FOR TARGETING AUTOPHAGY” (Automera PTE. LTD, priority 2024, published 2025):

How the values were obtained:
Format in all cases: cell-based
Conditions in all cases: 24 hours treatment, relative to vehicle control (DMSO)
p62 oligomers = target: T1, p62 oligomers (Homo sapiens, UniProt Q13501); experiment: p62 oligomerization assay by Western blot in HeLa cells
T1 construct: endogenous in cells; host or cells: HeLa
Procedure: (§1) HeLa cells were seeded in 6-well plates (700,000 cells) and allowed to adhere overnight. Media was replaced one hour before administering either vehicle (DMSO) or test compounds. After 24 hours of treatment, the media was discarded, and cells were rinsed once with ice-cold 1×PBS before detached from plates with ice-cold RIPA Lysis and Extraction Buffer (Thermo Fisher Scientific) which was supplemented with protease and phosphatase inhibitors. The resulting cell suspensions were transferred to pre-chilled microcentrifuge tubes, incubated on ice for 20 min with intermittent mixing and then centrifuged at 12,000 rpm for 20 min at 4° C. The supernatants were then aspirated slowly and transferred into new tubes kept on ice. The protein concentration in the samples was determined using BCA kit (Thermo Fisher Scientific) as per manufacturer's instructions.
(§2) For the p62 oligomerization and LC3 lipidation assays, cell lysates were prepared using RIPA buffer supplemented with 2% SDS and benzonase (Sigma). The lysates were then combined with 4× Laemmli protein sample buffer (Bio-Rad), heated at 70° C. for 10 min and subjected to a brief centrifugation of 10-15 seconds.
(§3) For p62 oligomerization and LC3 lipidation assays, lysates containing 30 μg of protein and for BRD4 and FKBP12(F36V) degradation assays, lysates containing 20 μg of protein, were loaded slowly into the wells of 4-20% gradient Tris-glycine gels (Bio-Rad). The gels were run at 100V until completion and transferred onto PVDF membranes. Membranes were blocked using 5% milk in TBS-Tween (0.1%) buffer at room temperature for 1 hour. The membranes were incubated with primary antibody in 5% milk-TBST with shaking, overnight at 4° C. The primary antibodies used were: p62 (Novus Biologicals 2C11, H00008878-MO1), LC3A/B (Cell Signalling Technology D3U4C, 12741S), FKBP12 (Abcam ab24373), BRD4 (Cell Signalling Technology E2A7X, 13440S), GAPDH (Cell Signalling Technology D4C6R, 97166S), and β-Actin (Proteintech 66009-1-Ig). Following primary antibody incubation, membranes were washed thrice with TBST 10 min before and after incubation with secondary-HRP conjugated antibody in 5% milk-TBST for 1 hour at room temperature. The secondary antibodies used were: Anti-Mouse IgG HRP Conjugate (Promega W4021B) and Anti-Rabbit IgG HRP Conjugate (Promega W4011). For the p62 oligomerization assay, the total protein levels were assessed using Ponceau staining (Thermo Fisher Scientific) of PVDF membrane as per recommendation by manufacturer's guidelines.
(§4) Imaging was acquired using SuperSignal™ West Pico PLUS Chemiluminescent Substrate (Thermo Fisher Scientific) with iBright Invitrogen FL100 imaging system. Band signal intensity, reflective of protein concentrations, were quantified using Invitrogen™ iBright™ Analysis and Image J software.
HeLa cells were treated with compounds for 24 hours to evaluate the effect of these compounds on p62 oligomerisation activity. The resulting changes in levels of p62 oligomers were assessed by Western blotting, as described in experimental procedures. The fold change of p62 oligomer levels induced by compound treatment relative to vehicle control (DMSO) was determined and summarized in Table 8. Specifically, FIGS. 2A-C show Western blot images and their corresponding quantification showing the levels of high molecular weight (100-200 kDa) p62 oligomers by 24 hours compound treatments at listed concentrations, relative to vehicle control (DMSO) in HeLa cells. Protein loading consistencies was assessed by Ponceau staining (not shown).

p62 puncta = p62 puncta immunocytochemistry imaging in HeLa cells
Method in brief: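 Following 24 h compound or DMSO treatment, HeLa cells were fixed and immunostained for p62 with DAPI counterstain. Puncta counted by imaging on EVOS M7000 (20× objective) or Operetta CLS (63× water objective); reported as fold change versus DMSO.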

LC3 protein = experiment: LC3 lipidation (LC3-II/LC3-I) assay by Western blot in HeLa cells
Procedure: as §1, §2, §3, §4
HeLa cells were treated with compounds for 24 hours to evaluate the effect of these compounds on LC3-II/LC3-I levels, a measure of autophagy activation. The changes in levels of LC3-I, LC3-II and […] (loading control) were assessed by Western blotting, as described in experimental procedures. The fold increase of LC3-II/LC3-I levels induced by compound treatment relative to vehicle control (DMSO) was determined and summarized in Table 9. Specifically, FIGS. 3A-C show Western blot images and their corresponding quantification showing the lipidation levels of LC3 protein (LC3-II/LC3-I) by 24 hours compound treatments at listed concentrations, relative to vehicle control (DMSO) in HeLa cells.

T1 sequence (Q13501 whole entry): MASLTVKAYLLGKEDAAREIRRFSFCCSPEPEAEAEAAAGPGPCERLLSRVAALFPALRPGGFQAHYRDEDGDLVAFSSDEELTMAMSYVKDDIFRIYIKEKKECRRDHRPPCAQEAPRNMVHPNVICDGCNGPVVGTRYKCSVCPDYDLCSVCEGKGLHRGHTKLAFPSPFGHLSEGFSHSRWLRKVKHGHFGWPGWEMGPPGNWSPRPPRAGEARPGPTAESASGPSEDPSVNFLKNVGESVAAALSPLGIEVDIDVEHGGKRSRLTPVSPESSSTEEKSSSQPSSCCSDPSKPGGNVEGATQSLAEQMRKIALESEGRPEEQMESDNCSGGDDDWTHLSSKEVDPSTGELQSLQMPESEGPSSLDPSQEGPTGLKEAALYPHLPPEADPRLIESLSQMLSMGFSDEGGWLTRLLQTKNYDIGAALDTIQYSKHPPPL

SMILES	p62 oligomerization (fold change of p62 oligomer levels) (p62 oligomers)	p62 puncta (fold change of p62 puncta levels) (p62 puncta)	LC3 lipidation (fold increase of LC3-II/LC3-I levels) (LC3 protein)
OCCNCc1cc(F)cc2c1ccn2Cc1ccc(F)cc1 [Compound 44]	++ (>2-fold change relative to DMSO control)	++ (>2-fold change in p62 puncta levels relative to DMSO control)	++ (>2-fold change in LC3-II/LC3-I relative to DMSO control)
OCCNCc1cccc2c1ccn2Cc1ccccc1 [Compound 1, 2-(((1-benzyl-1H-indol-4-yl)methyl)amino)ethan-1-ol]	++ (>2-fold change relative to DMSO control)	+ (<2-fold change in p62 puncta levels relative to DMSO control)	+ (<2-fold change in LC3-II/LC3-I relative to DMSO control)
OCCNCc1cc(F)cc2c1ccn2Cc1ccc(Cl)cc1 [Compound 45, 2-(((1-(4-chlorobenzyl)-6-fluoro-1H-indol-4-yl)methyl)amino)ethan-1-ol]	++ (>2-fold change relative to DMSO control)	++ (>2-fold change in p62 puncta levels relative to DMSO control)	++ (>2-fold change in LC3-II/LC3-I relative to DMSO control)
